# According to patent publication US5352599A, “Co-enzyme-independent L-sorbosone dehydrogenase of gluconobacter oxydans: isolation, characterization, and cloning and autologus expression of the gene” (Hoffmann-La Roche Inc., priority 1988, dated 1994):
# T1: membrane-bound L-sorbosone dehydrogenase from Gluconobacter oxydans IFO 12258, purified, coenzyme independent (Gluconacetobacter liquefaciens, UniProt Q44091)
# T1 construct: endogenous in cells; host or cells: Gluconobacter oxydans IFO 12258 (enzyme isolated from the strain itself)
# T1 sequence (Q44091 1-449): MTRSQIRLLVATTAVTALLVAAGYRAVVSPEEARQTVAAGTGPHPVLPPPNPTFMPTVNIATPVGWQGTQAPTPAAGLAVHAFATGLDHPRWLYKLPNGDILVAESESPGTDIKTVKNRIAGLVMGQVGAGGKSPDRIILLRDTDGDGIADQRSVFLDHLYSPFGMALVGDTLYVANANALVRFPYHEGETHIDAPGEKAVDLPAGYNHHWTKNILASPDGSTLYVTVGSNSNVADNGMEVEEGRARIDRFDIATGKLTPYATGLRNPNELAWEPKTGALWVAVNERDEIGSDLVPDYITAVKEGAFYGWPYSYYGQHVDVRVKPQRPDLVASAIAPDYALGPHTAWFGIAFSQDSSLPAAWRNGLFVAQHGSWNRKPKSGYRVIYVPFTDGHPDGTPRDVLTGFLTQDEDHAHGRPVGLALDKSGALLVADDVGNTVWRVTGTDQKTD
# B1: membrane-bound L-sorbosone dehydrogenase from Gluconobacter oxydans IFO 12258, purified, coenzyme independent (Gluconacetobacter liquefaciens) (protein)
# chain: T1 sequence (Q44091 1-449)
# notes: endogenous in cells; host or cells: Gluconobacter oxydans IFO 12258 (enzyme isolated from the strain itself)
# Legend:
# [1] = target: T1, membrane-bound L-sorbosone dehydrogenase from Gluconobacter oxydans IFO 12258, purified, coenzyme independent; test: L-sorbosone dehydrogenase enzyme assay (DCIP reduction at 600 nm, 25° C.); assay type: biochemical
# Protocol: (§1) Enzyme assay was performed at 25° C. by measuring the decrease of absorbance at 600nm of DCIP spectrophotometrically. One unit of enzyme activity was defined as the amount of enzyme which catalyzed the reduction of 1 μmole of DCIP per minute.
# (§2) The extinction coefficient of DCIP at pH 7.0 was taken as 9.45mM^-1. The basal reaction mixture is shown below. The mixture was prepared just before the assay.
# (§3) A cuvette with 1cm light path contained 0.4ml of basal mixture, 20μl of 10mM phenazine methosulphate, 10μl of enzyme solution and 20μl of 110mM L-sorbosone solution in a final volume of 0.45ml. A reference cuvette contains all components except the substrate. The reaction was initiated by the addition of the substrate. Enzyme activity was measured as the initial reduction rate of DCIP.
# [2] = substrate: O=CC(=O)[C@@H](O)[C@H](O)[C@@H](O)CO; test: as above; assay type: biochemical, Gluconobacter oxydans IFO 12258; conditions: other: pH7.0, purified enzyme, pH 7.0
# Protocol: as §1, §2, §3
molecule,measurement,setting,value
"O=C(O)CI [ICH2 COOH, Monoiodoacetic acid]",inhibition of the enzyme (in words),[1],moderately inhibited
same,inhibition at 10000 µM,[1]; read-out: Relative activity (%) in presence of inhibitor,64.3%
[N-]=[N+]=[N-].[Na+] [NaN3],Relative activity (%) in presence of inhibitor,"[1]; inhibitor 25 mM, L-Sorbosone as the substrate, None = 100",89.4%
B1,Km,[2],16.7 mM
